Reference: patent US7105521B2, “Eugenosedin-A based pharmacoligical agents” (Syn-Tech Chem & Pharm Co., Ltd., priority 2003, dated 2006)
“Also recorded” adds a separate entry of the source.

Legend:
[1] = LPS-induced vascular hyporeactivity of isolated aorta to phenylephrine; format: in vivo, rats
Text: (§1) Isolation of rat thoracic aorta. Rat thoracic aorta was removed, cleaned of adhering fat and connective tissue and cut into 3–4 mm wide transverse rings.

[2] = system: α2-adrenoceptor; test: Intra-cisternal antagonism of clonidine-induced hypotension and bradycardia; format: in vivo, rats
Procedure: (§2) Intra-cisternal injections. […] Briefly, rats weighing 250–300 g were anaesthetized with pentobarbital sodium (50 mg kg^−1, i.p.) and mounted in a David-Kopf stereotaxic instrument (Yeh J L. et al., Brain. Res. Bull., 30:641–648, 1993). The calvarium was exposed and a 1 mm diameter trephine hole was drilled 1.8 mm lateral to the coronary and 1.5 mm posterior to the sagittal sutures. A cannula (0.7 mm O.D.) connected to a Hamilton syringe (RN-705, 5051) by PE-50 was advanced 4.7 mm into the brain using the electrode carrier.

[3] = biological target: T1, β2 receptors (Rattus norvegicus, UniProt P10608); test: Receptor binding, [3H]CGP-12177, rat lung; set-up: species or system Wistar rat
T1 construct: with [^3H]CGP-12177 on β2 receptors in rat lung; from tissue; host or cells: Wistar rat lung membranes
Procedure: (§3) Drugs and chemicals. […] Eugenosedin-A synthesized in this laboratory was solvated in 50% absolute alcohol, 10% propylene glycol and further diluted with distilled water. All of the [^3H] ligand was purchased from New England Nuclear Corp. (Boston, Mass., U.S.A.).
Receptor binding studies. […] The homogenate was pressure filtered through muslin. Filtrate was centrifuged at 1000 g for 10 min. Supernatant was centrifuged at 10,000 g for 12 min at 4° C. The second supernatant was centrifuged at 30,000 g for 15 min at 4° C. The final pellet was re-suspended in assay buffer (75 mM Tris HCl, 25 mM MgCl2, pH 7.4). Protein content was determined by Bradford's method. Radioligand agents and membranes (200–300 μg) were incubated for 60 min at 25° C. with or without the addition of nonspecific binding agents, in a 75 mM Tris HCl buffer with 25 mM MgCl2, to make a final volume of 500 μl. In competitive-binding experiments, the competing agent was added directly to the incubation mixture. […] Membrane-bound radioligand trapped in the filters was counted in a Beckman LS6500 scintillation system (Fullerton, Calif., U.S.A) with an efficiency of 45%. In each experiment, nonspecifically bound radioligand agents were determined by incubating membrane protein. […]

[4] = Intra-cisternal injections: mean arterial BP and HR; format: in vivo, rats
Procedure: as §2

[5] = LPS-induced hypotension; format: in vivo, Wistar rats; conditions: LPS 10 mg kg^−1 i.v.
Procedure: (§4) Intravenous injection. The experiments were carried out as previously described (Wu B N. et al., Biochem. Pharmacol., 48:101–109, 1994). In brief, Wistar rats weighing 250–300 grams were anesthetized with pentobarbital sodium (50 mg kg^−1, i.p.). Following tracheal cannulation, systemic arterial BP and HR were recorded from the femoral artery by a pressure transducer (model P10EZ; Spectramed, Oxnard, Calif., U.S.A.) connected to a recorder (GOULD, Valley View, Ohio, Model P50). Body temperature was maintained at 37° C. by an electric heating pad. A femoral vein was cannulated for intravenous injection of drugs and LPS (10 mg kg^−1).

[6] = biological target: T2, 5-HT2A receptor (Rattus norvegicus, UniProt P14842); test: 5-HT-induced contraction of isolated rat thoracic aorta; format: cell-based; set-up: from tissue; host or cells: rat thoracic aorta rings
Text: as §1

[7] = biological target: α1 receptors; test: Receptor binding, [3H]prazosin, rat cortex; set-up: species or system Wistar rat
Procedure: as §3
(§5) Receptor binding studies. […] The homogenate was pressure filtered through muslin. Filtrate was centrifuged at 1000 g for 10 min. Supernatant was centrifuged at 10,000 g for 12 min at 4° C. The second supernatant was centrifuged at 30,000 g for 15 min at 4° C. The final pellet was re-suspended in assay buffer (75 mM Tris HCl, 25 mM MgCl2, pH 7.4). Protein content was determined by Bradford's method. Radioligand agents and membranes (200–300 μg) were incubated for 60 min at 25° C. with or without the addition of nonspecific binding agents, in a 75 mM Tris HCl buffer with 25 mM MgCl2, to make a final volume of 500 μl. In competitive-binding experiments, the competing agent was added directly to the incubation mixture. Incubation was terminated by addition of 1 ml of ice-cold assay buffer followed by immediate filtration through Whatman GF/C glass fiber filters supported on a 12-port filter manifold (Millipore). The filters were immediately washed 3 times with 5 ml of ice-cold assay buffer and dried in an oven at 60° C. for 2 hours before adding 5 ml of Triton-toluene-based scintillation fluid. Membrane-bound radioligand trapped in the filters was counted in a Beckman LS6500 scintillation system (Fullerton, Calif., U.S.A) with an efficiency of 45%. In each experiment, nonspecifically bound radioligand agents were determined by incubating membrane protein. Specific binding for each sample was obtained by deducting this value from the total binding of radioligand agents.

[8] = Blood glucose after LPS; format: in vivo, Wistar rats
Procedure: (§6) Plasma cytokine immunoreactivity and blood glucose. Blood was collected from venous cannula, injected into ice-cold heparinized Eppendorf tubes and centrifuged at 1500 rpm for 10 min at 4° C. Plasma supernatant was stored at −70° C. until analyzed. Solid phase enzyme immunoassay that specifically detects murine IL-1β, IL-6, IFN-γ and TNF-α was used with a detection limit of >10 pg/ml (Endogen, U.S.A). Pretreatment with eugenosedin-A and other agents was performed 15 minutes before intravenous injection of LPS. Blood was collected from venous cannula. Blood glucose was measured with a glucose test strip (Glucotide, Bayer, U.S.A) at 1, 3 and 5 hours.

[9] = Survival rate after LPS; format: in vivo, ddk mice; conditions: pretreatment 0.5, 1, 5 mg kg^−1 i.p., LPS 60 mg kg^−1
[10] = system: IL-6; test: Plasma cytokine immunoreactivity after LPS: IL-6; format: in vivo, Wistar rats; conditions: 3 hours after LPS 10 mg kg^−1 i.v.; pretreatment 1 mg kg^−1 i.v.
Procedure: as §6

[11] = Intravenous injection: BP and HR in pentobarbital-anesthetized rats; format: in vivo, Wistar rats
Procedure: as §4

[12] = biological target: T2, 5-HT2A receptor; test: Receptor binding, [3H]ketanserin, rat cortex; set-up: from tissue; host or cells: Wistar rat cortex membranes; species or system Wistar rat
Procedure: as §3, §5

[13] = system: IL-1β; test: Plasma cytokine immunoreactivity after LPS: IL-1β; format: in vivo, Wistar rats; conditions: 3 hours after LPS 10 mg kg^−1 i.v.; pretreatment (eugenosedin-A 1 mg kg^−1 i.v.)
Procedure: as §6

[14] = system: TNF-α; test: Plasma cytokine immunoreactivity after LPS: TNF-α; format: in vivo, Wistar rats
Procedure: as §6

[15] = i.v., pentobarbital-anesthetized rats

T2 sequence (P14842 whole entry): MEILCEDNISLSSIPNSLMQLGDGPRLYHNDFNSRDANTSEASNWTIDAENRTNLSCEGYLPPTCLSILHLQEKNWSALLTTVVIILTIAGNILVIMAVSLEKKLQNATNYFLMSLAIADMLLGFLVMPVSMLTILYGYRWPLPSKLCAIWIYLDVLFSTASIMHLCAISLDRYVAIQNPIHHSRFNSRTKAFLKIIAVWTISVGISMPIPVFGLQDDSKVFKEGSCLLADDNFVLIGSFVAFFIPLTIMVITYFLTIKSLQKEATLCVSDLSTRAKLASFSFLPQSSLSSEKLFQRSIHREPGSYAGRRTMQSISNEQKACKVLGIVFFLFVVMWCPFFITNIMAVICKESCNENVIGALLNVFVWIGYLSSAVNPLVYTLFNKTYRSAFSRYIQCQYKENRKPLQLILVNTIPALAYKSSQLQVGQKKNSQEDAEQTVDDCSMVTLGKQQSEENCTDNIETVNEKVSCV
T1 sequence (P10608 whole entry): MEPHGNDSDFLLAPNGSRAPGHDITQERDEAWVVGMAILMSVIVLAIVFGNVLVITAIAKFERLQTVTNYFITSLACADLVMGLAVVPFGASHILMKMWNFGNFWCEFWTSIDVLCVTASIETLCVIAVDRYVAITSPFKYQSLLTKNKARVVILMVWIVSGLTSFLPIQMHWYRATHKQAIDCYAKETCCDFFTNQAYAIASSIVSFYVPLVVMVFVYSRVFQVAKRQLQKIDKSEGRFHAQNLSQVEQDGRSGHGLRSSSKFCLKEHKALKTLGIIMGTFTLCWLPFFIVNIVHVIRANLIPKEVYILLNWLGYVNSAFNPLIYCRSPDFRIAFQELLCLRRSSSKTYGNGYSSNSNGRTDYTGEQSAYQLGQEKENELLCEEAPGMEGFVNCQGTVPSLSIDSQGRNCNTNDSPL

CC=Cc1ccc(OCC(O)CN2CCN(c3ccccc3Cl)CC2)c(OC)c1 (centres unmarked) [eugenosedin-A]
aortic contractility to phenylephrine in LPS-treated rats ([1]; 1 mg kg^−1 i.v. before or after LPS, phenylephrine 10^−8~10^−4 M): increased aortic contractility more than the vehicle group | protection from LPS-induced hyporeactivity of the aorta compared with yohimbine, trazodone, aminoguanidine and ascorbic acid ([1]; rat, in vivo): more effective | bradycardic effect of clonidine ([2]; 0.3 μmol): reduced the bradycardic effect of clonidine | hypotensive effect of clonidine ([2]; given 15 min before clonidine injection): antagonized the hypotensive effect of clonidine | clonidine-induced bradycardia ([2]; low dose, 0.03 μmol): did not inhibit clonidine-induced bradycardia | Ki [3]: > 10000 nM | increase of HR ([4]; 0.3 μmol): up to 60 bpm | pressor response ([4]; 0.3 μmol): up to 15 mmHg | effect on mean arterial BP and HR ([4]; eugenosedin-A and trazodone 0.3, 0.03 μmol, yohimbine 0.03 μmol): increased mean arterial BP and HR | development of hypotension after LPS injection and normalization of BP ([5]; i.v. pretreatment): normalized BP within 5 hours | first immediate hypotensive phase after LPS ([5]; pretreatment 0.5 mg kg^−1 i.v.): not affected | first immediate hypotensive phase after LPS ([5]; pretreatment 1 mg kg^−1 i.v.): attenuated it | second prolonged hypotensive phase after LPS ([5]; pretreatment 0.5 and 1 mg kg^−1 i.v.): significantly reduced | Kb [6]: 2.09 nM | 5-HT-induced contractile activities ([6]; 10^−8, 10^−7, 10^−6 M, isolated rat thoracic aorta): concentration-dependently inhibited | Ki [7]: 142 nM | order of α1 receptor binding potency [7]: prazosin >ketanserin >eugenosedin-A >methylsergide, propranolol and 5-HT | initial hyperglycemic response to LPS ([8]; blood glucose at 1 and 3 hours after LPS): inhibited the initial hyperglycemic response to LPS | hypoglycemic response to LPS ([8]; blood glucose at 5 hours after LPS): did not reverse the hypoglycemic response | survival rate after LPS ([9]; at 12 hrs): significantly increased | time of LPS-induced death [9]: 36 h | LPS-induced increase in IL-6 [10]: significantly inhibited | effect on arterial blood pressure after acute intravenous injection ([11]; 0.1, 0.5, 1.0 mg kg^−1 i.v., pentobarbital-anesthetized Wistar rats): mild arterial hypotension | depressor effect compared with trazodone and ketanserin ([11]; i.v., pentobarbital-anesthetized Wistar rats): less than that of trazodone and ketanserin | mean BP and HR after intravenous administration [11, 15]: dose-dependent decrease in mean BP and HR | phenylephrine- and isoprenaline-induced changes in BP and HR [11, 15]: inhibited phenylephrine- and isoprenaline-induced changes in BP and HR | binding affinity for 5-HT2A receptors [12]: higher binding affinity than other β-adrenergic antagonists; also recorded: higher binding affinity than propranolol | order of potency on 5-HT2A receptors [12]: ketanserin >methylsergide >eugenosedin-A >5-HT >propranolol >prazosin | Ki ([12]; [3H]ketanserin, rat cortex): 33.3 nM | LPS-induced increase in IL-1β [13]: significantly inhibited | LPS-induced increase in TNF-α ([14]; 3 hours after LPS 10 mg kg^−1 i.v., pretreatment (eugenosedin-A 1 mg kg^−1 i.v.)): significantly inhibited | LPS-induced increase in TNF-α ([14]; 5 hours after LPS 10 mg kg^−1 i.v., pretreatment): significantly reduced
